Experimental data taken from paper PMC11027099 (ACS Chemical Neuroscience, 2024).
Where two headings read alike, the source gives them in different places.

Experiments:
[1] = biological target: T1, cone CNG channel (CNGA3/CNGB3) (Homo sapiens, UniProt Q16281+Q9NQW8); assay: inside-out patch clamp, Xenopus oocytes, Hill fit; type: cell-based
T1 construct: heterotetramer 3 CNGA3 : 1 CNGB3; subunits in pGEMHE, cRNA ratio 1:2.5, expressed in Xenopus laevis oocytes; inside-out patches
T1 sequence (Q16281 1-694): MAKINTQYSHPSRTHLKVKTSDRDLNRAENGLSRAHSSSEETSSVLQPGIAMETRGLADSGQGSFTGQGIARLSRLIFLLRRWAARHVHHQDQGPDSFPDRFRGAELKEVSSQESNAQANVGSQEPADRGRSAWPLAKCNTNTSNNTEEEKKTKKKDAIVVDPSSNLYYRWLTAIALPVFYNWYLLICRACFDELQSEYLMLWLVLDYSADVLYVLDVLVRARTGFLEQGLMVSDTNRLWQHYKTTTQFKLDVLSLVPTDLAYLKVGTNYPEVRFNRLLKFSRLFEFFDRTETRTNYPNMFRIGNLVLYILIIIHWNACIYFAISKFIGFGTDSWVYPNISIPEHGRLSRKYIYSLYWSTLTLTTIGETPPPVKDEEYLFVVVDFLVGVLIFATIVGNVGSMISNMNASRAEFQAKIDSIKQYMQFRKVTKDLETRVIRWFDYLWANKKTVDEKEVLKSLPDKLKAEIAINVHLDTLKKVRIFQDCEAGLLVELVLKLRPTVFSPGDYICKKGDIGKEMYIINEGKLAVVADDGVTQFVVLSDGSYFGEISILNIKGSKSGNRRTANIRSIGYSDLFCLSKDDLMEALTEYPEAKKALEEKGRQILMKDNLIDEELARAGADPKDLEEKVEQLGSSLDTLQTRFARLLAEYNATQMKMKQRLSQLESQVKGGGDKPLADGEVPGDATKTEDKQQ
T1 sequence (Q9NQW8 1-809): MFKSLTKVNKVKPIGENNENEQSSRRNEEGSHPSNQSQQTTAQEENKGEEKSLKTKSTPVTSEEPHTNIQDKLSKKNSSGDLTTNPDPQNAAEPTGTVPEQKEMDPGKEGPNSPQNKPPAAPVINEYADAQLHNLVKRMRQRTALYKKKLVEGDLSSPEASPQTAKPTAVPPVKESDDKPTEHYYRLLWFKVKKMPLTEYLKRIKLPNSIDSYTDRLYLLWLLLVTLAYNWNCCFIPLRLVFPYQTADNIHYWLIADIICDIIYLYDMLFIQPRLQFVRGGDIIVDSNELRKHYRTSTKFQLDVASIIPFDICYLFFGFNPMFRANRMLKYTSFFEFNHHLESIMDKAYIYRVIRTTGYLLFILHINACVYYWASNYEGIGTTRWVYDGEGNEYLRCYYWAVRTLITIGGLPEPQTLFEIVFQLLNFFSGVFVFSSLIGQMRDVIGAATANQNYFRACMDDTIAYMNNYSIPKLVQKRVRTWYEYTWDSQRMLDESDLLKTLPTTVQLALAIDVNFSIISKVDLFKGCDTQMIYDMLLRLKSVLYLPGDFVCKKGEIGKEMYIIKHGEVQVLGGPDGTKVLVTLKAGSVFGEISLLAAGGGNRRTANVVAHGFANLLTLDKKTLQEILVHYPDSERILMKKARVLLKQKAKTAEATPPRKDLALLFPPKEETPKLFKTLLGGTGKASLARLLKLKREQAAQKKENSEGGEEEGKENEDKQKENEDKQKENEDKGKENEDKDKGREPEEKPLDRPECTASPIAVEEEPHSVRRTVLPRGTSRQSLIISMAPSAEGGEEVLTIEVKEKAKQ

[2] = biological target: T2, rod CNG channel (CNGA1/CNGB1a) (Bos taurus, UniProt Q00194+Q28181); assay: inside-out patch clamp, Xenopus oocytes, Hill fit; type: cell-based
T2 construct: heterotetramer 3 CNGA1 : 1 CNGB1a; subunits in pGEMHE, cRNA ratio 1:4, expressed in Xenopus laevis oocytes; inside-out patches
T2 sequence (Q00194 whole entry): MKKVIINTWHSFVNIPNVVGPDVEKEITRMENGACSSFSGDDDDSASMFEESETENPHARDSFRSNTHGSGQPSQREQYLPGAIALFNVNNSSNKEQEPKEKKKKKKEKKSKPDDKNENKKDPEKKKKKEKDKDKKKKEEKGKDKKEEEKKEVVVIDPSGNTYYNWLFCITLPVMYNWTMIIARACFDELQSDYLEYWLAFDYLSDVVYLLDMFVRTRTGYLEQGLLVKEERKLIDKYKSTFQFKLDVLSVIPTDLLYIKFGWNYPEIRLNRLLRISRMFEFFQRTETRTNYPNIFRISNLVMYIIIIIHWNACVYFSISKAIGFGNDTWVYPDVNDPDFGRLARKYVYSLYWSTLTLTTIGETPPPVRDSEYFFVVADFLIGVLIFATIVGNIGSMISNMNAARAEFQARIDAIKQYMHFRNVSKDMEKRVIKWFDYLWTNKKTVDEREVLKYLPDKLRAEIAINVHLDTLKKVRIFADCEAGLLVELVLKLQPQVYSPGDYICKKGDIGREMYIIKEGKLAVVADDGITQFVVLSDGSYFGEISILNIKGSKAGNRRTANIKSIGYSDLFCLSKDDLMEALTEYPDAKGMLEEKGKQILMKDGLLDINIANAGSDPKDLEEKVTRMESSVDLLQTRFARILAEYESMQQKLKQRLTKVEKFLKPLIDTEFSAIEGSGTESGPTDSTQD
T2 sequence (Q28181 whole entry): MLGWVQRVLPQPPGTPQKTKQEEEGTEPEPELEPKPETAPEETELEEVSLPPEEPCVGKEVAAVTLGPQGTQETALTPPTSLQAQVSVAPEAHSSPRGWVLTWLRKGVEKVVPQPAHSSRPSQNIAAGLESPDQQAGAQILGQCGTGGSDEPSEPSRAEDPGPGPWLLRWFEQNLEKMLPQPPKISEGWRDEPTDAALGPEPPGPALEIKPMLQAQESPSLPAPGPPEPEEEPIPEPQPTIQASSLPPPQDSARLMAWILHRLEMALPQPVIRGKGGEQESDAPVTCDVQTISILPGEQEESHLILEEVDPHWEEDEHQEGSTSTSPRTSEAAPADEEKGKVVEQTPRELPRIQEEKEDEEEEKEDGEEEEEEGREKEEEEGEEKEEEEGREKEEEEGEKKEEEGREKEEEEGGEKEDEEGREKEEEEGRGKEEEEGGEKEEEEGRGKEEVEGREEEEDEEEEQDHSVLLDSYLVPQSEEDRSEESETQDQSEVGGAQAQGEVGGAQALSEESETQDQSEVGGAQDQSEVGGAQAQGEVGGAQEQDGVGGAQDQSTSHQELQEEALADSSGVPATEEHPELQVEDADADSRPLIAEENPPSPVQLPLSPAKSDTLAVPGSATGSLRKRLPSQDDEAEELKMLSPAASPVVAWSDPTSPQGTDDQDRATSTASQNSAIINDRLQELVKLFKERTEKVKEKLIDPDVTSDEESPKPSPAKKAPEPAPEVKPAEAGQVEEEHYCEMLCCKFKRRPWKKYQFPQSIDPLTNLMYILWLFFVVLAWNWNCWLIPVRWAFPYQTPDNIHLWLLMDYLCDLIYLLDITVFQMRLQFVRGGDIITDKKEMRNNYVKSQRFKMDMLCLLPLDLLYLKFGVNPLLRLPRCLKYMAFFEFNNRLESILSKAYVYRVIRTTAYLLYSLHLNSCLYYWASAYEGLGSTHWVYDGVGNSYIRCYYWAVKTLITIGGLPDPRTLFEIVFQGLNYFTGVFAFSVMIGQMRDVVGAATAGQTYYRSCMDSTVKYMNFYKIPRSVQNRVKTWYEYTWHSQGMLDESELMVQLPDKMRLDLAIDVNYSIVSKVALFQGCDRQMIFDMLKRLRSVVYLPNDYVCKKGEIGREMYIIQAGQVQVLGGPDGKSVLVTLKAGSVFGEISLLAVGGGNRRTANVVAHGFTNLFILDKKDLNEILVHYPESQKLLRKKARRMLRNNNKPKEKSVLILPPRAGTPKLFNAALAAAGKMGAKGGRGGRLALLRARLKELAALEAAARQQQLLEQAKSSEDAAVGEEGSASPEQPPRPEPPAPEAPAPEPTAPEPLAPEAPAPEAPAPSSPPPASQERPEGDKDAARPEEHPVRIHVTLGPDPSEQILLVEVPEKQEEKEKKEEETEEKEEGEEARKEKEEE

[3] = biological target: T2, rod CNG channel (CNGA1/CNGB1a); assay: inside-out patch clamp, Xenopus oocytes, current relative to saturating cGMP; type: biochemical; conditions: partial agonist; up to 5 mM analogue vs 3 mM cGMP, pH 7.4, room temperature
[4] = biological target: T1, cone CNG channel (CNGA3/CNGB3); assay: as above; type: biochemical; conditions: partial agonist; saturating analogue vs 1 mM cGMP, pH 7.4, room temperature

SMILES	EC50 [1] [µM]	EC50 ([1]; channel activation (agonist), +100 mV, pH 7.4, room temperature) [µM]	EC50 [2] [µM]	% activation relative to cGMP [3]	% activation relative to cGMP [4]
Nc1nc2c(ncn2[C@@H]2O[C@@H]3COP(=O)(O)O[C@H]3[C@H]2O)c(=O)[nH]1 [cGMP]	18.7				
Nc1nc2c(nc(Br)n2[C@@H]2O[C@@H]3COP(=O)(O)O[C@H]3[C@H]2O)c(=O)[nH]1 [compound 1, 8-Br-cGMP]		1.04	6.18		
Nc1nc(=O)c2nc(Sc3ccc(Cl)cc3)n([C@@H]3O[C@@H]4COP(=O)(O)O[C@H]4[C@H]3O)c2[nH]1 [compound 2, 8-pCPT-cGMP]	0.09		0.77		
O=c1c2ncn([C@@H]3O[C@@H]4COP(=O)(O)O[C@H]4[C@H]3O)c2nc2[nH]c(-c3ccccc3)cn12 [compound 3, PET-cGMP]				~ 41.2%	PET-cGMP, Rp-cGMPS, Sp-cGMPS, and Sp-8-pCPT-cGMPS, was only partially effective when activating cone CNG channels
Nc1nc2c(ncn2[C@@H]2O[C@@H]3COP(O)(=S)O[C@H]3[C@H]2O)c(=O)[nH]1 (stereo partly shown) [compound 4, Rp-cGMPS]				~ 11%	~ 43.6%
Nc1nc2c(ncn2[C@@H]2O[C@@H]3CO[P@](O)(=S)O[C@H]3[C@H]2O)c(=O)[nH]1 [compound 5, Sp-cGMPS]	2.88			~ 62.8%	
Nc1nc2c(nc(Sc3ccc(Cl)cc3)n2[C@@H]2O[C@@H]3CO[P@](O)(=S)O[C@H]3[C@H]2O)c(=O)[nH]1 [compound 7, Sp-8-pCPT-cGMPS]	131		42.8		
